Experimental data as given in patent US9446031B2, “Compositions and methods for neovascularization” (National University of Singapore, priority 2012, dated 2016).
“Also recorded” adds a separate entry of the source.

Columns and labels:
Format in all cases: cell-based, human
HUVEC = assay: Proteome profiler of angiogenic proteins secreted by endothelial cells; details: single agent compared with CPX+S1P
Source text: (§1) FIG. 4: CPX and S1P induce secretion of different angiogenic proteins by endothelial cells and fibroblasts. […] (E) and (J): representative images of 3 proteomic profiler membranes showing differences in protein secretion between CPX and S1P treated group and non-treated group (culture media control). (K) and (L): ELISA quantitation of PlGF and VEGF corroborating semi-quantitative results shown in A-I. The negative values in the plots denote the cellular uptake of the measured proteins as opposed to secrete them. * p<0.05 As the experimental set-up favoured soluble factors as messengers between the two cell types the secretion of angiogenic factors by fibroblasts and endothelial cells in the presence of CPX and S1P, respectively, was assessed. Proteome profiler data indicated the increased secretion of several proteins including PlGF (6 fold), IL-8 (3 fold), EGF (2.9 fold) and endothelin-1 (1.5 fold) by CPX+S1P by endothelial cells.

IMR-90 fibroblasts = assay: Proteome profiler of angiogenic proteins secreted by fibroblasts; details: single agent compared with CPX+S1P
Source text: as §1, with “In fibroblasts, CPX+S1P expression” for “Proteome profiler data indicated the increased secretion”, “HGF (1.4” for “several proteins including PlGF (6”, “IGFBP-2 (1.8” for “IL-8 (3”, “uPA (1.6” for “EGF (2.9”, “VEGF (11 fold). […] In fibroblasts an increase of VEGF secretion which was 1819±754.1 (±standard error) pg/ml-Million cell-day was confirmed.” for “endothelin-1 (1.5 fold) by CPX+S1P by endothelial cells.”

IMR90 cells = assay: ELISA of MCP-1 secreted by IMR90 cultured in EC conditioned medium
Procedure: FIG. 5: Endothelial CM modulates growth factor secretion by fibroblasts. (A) ELISA: fibroblasts secrete 5 times more MCP-1 cultured in EC CM. […] (B) and (C): semi-quantitative proteomic array plots showing clearance of EC secreted endothelin-1 and EGF from culture media in the presence of fibroblasts. […] To study the influence of endothelial cells on fibroblasts IMR90 cells were cultured in EC conditioned medium with or without the addition of CPX+S1P, and quantified factors secreted by fibroblasts by ELISA. […] Endothelial cell CM induced the secretion of MCP-1 by fibroblasts by 3-fold in the absence of any CPX+S1P induction, however, the combination of both pharmacological agents increased MCP-1 secretion by a further 20%.

endothelia (HUVEC) = assay: ELISA quantitation of PlGF secretion by endothelial cells
Source text: (§2) FIG. 4: CPX and S1P induce secretion of different angiogenic proteins by endothelial cells and fibroblasts. […] (E) and (J): representative images of 3 proteomic profiler membranes showing differences in protein secretion between CPX and S1P treated group and non-treated group (culture media control). (K) and (L): ELISA quantitation of PlGF and VEGF corroborating semi-quantitative results shown in A-I. The negative values in the plots denote the cellular uptake of the measured proteins as opposed to secrete them. * p<0.05 In fibroblasts, CPX+S1P expression of HGF (1.4 fold), IGFBP-2 (1.8 fold), uPA (1.6 fold) and VEGF (11 fold). […] In fibroblasts an increase of VEGF secretion which was 1819±754.1 (±standard error) pg/ml-Million cell-day was confirmed.

fibroblasts (IMR-90) = assay: ELISA quantitation of VEGF secretion by fibroblasts
Source text: as §2

Compound | increased secretion of PlGF, IL-8, EGF and endothelin-1 by endothelial cells, single agent (HUVEC) | increased secretion of HGF, IGFBP-2, uPA and VEGF by fibroblasts, single agent (IMR-90 fibroblasts) | effect on MCP-1 secretion by fibroblasts, monosubstance (IMR90 cells) | effect on PlGF secretion rate (endothelia (HUVEC)) | effect on VEGF secretion (fibroblasts (IMR-90))
Cc1cc(C2CCCCC2)n(O)c(=O)c1 [CPX, ciclopirox olamine] | Highly comparable increases; also recorded: main compound causing the observed upregulation | Highly comparable increases; also recorded: main compound causing the observed upregulation | neither S1P nor CPX were able to increase basal MCP-1 secretion; also recorded: No significant difference |  | 
CCCCCCCCCCCCC/C=C/[C@@H](O)[C@@H](N)COP(=O)(O)O [S1P, sphingosine 1-phosphate] | none were observed | none were observed | neither S1P nor CPX were able to increase basal MCP-1 secretion; also recorded: No significant difference | did not show any effect | did not elicit measurable effects
